This is an account of results in patent US8574563B2 (Bristol-Myers Squibb Company, priority 2006, dated 2013).

In the assay the test system is HCV 1b-377-neo replicon cells. Description: HCV replicon assay, HCV 1b-377-neo replicon cells (1b FRET). The class given is cell-based, Hepatitis C virus genotype 1b. Conditions: Hepatitis C virus, HCV 1b-377-neo replicon cells; HCV 1b genotype; read-out: EC50 range against HCV 1b (Table 2, Range). A digest of the protocol:
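Compounds tested in HCV genotype 1b-377-neo replicon cells with a FRET read-out. Cells resistant to a reference NS5A inhibitor through a Y2065H NS5A mutation were run alongside wild-type cells.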
(Replicon systems follow genome replication, usually without infectious particles.)
With `CCCN(CCC)[C@H](C)C(=O)N1CCC[C@H]1c1ncc(-c2ccc(-c3ccc(-c4cnc([C@@H]5CCCN5C(=O)[C@H](NC(=O)OC)c5ccccc5)[nH]4)cc3)cc2)[nH]1` [Example M64, methyl ((1R)-2-((2S)-2-(5-(4′-(2-((2S)-1-(N,N-dipropyl-D-alanyl)-2-pyrrolidinyl)-1H-imidazol-5-yl)-4-biphenylyl)-1H-imidazol-2-yl)-1-pyrrolidinyl)-2-oxo-1-phenylethyl)carbamate], the EC50 was 1 to 99 nM.

`CN(C)[C@@H](C(=O)N1CCC[C@H]1c1ncc(-c2ccc(-c3ccc(-c4cnc([C@@H]5CCCN5C(=O)[C@@H](c5ccccc5)N(C)C)[nH]4)nn3)cc2)[nH]1)c1ccccc1` [Example 152j-9, (1R)-2-((2S)-2-(5-(6-(4-(2-((2S)-1-((2R)-2-(dimethylamino)-2-phenylacetyl)-2-pyrrolidinyl)-1H-imidazol-5-yl)phenyl)-3-pyridazinyl)-1H-imidazol-2-yl)-1-pyrrolidinyl)-N,N-dimethyl-2-oxo-1-phenylethanamine]: the EC50 lay in the range of 1 to 99 nM.

In the case of `COC(=O)N[C@@H](C(=O)N1CCC[C@H]1c1ncc(-c2ccc(-c3ccc(-c4cnc([C@@H]5CCCN5C(=O)c5snnc5-c5ccccc5)[nH]4)cc3)cc2)[nH]1)c1ccccc1` [Example 84-10, methyl ((1R)-2-oxo-1-phenyl-2-((2S)-2-(5-(4′-(2-((2S)-1-((4-phenyl-1,2,3-thiadiazol-5-yl)carbonyl)-2-pyrrolidinyl)-1H-imidazol-5-yl)-4-biphenylyl)-1H-imidazol-2-yl)-1-pyrrolidinyl)ethyl)carbamate], the EC50 was in the range of 1 to 99 nM.

`CC(C)[C@H](NC(=O)OC(C)(C)C)C(=O)N1[C@@H]2C[C@@H]2C[C@H]1c1nc(-c2ccc(-c3ccc(-c4c[nH]c([C@@H]5C[C@H]6C[C@H]6N5C(=O)[C@@H](NC(=O)OC(C)(C)C)C(C)C)n4)cc3)cc2)c[nH]1` [Example M140a-ii, tert-butyl ((1S)-1-(((1R,3S,5R)-3-(4-(4′-(2-((1R,3S,5R)-2-((2S)-2-((tert-butoxycarbonyl)amino)-3-methylbutanoyl)-2-azabicyclo[3.1.0]hex-3-yl)-1H-imidazol-4-yl)-4-biphenylyl)-1H-imidazol-2-yl)-2-azabicyclo[3.1.0]hex-2-yl)carbonyl)-2-methylpropyl)carbamate]: the half-maximal effective concentration (EC50) is 1 to 99 nM.

On to `COC(=O)N[C@H](C(=O)N1CCC[C@H]1c1ncc(-c2ccc(-c3ccc(-c4cnc([C@@H]5CCCN5C(=O)[C@@H](NC(=O)OC)C(C)C)[nH]4)cc3CN(C)C)cc2)[nH]1)C(C)C` [Example M120], for which the half-maximal effective concentration (EC50) was 100 to 999 nM.

As for `COc1ccccc1OCC(=O)N1CCC[C@H]1c1ncc(-c2ccc(-c3ccc(-c4cnc([C@@H]5CCCN5C(=O)[C@@H](c5ccccc5)N5CCCCC5)[nH]4)cc3)cc2)[nH]1` [Example 107-8, 1-((1R)-2-((2S)-2-(5-(4′-(2-((2S)-1-((2-methoxyphenoxy)acetyl)-2-pyrrolidinyl)-1H-imidazol-5-yl)-4-biphenylyl)-1H-imidazol-2-yl)-1-pyrrolidinyl)-2-oxo-1-phenylethyl) piperidine], the EC50 was 0.001 to 0.999 nM.

Regarding `COC(=O)N[C@@H](C)C(=O)N1CCC[C@H]1c1ncc(-c2ccc(-c3ccc(-c4cnc([C@@H]5CCCN5C(=O)c5ncco5)[nH]4)cc3)cc2)[nH]1` [Example M92, methyl ((1S)-1-methyl-2-((S)-2-(5-(4′-(2-((2S)-1-(1,3-oxazol-2-ylcarbonyl)-2-pyrrolidinyl)-1H-imidazol-5-yl)-4-biphenylyl)-1H-imidazol-2-yl)-1-pyrrolidinyl)-2-oxoethyl)carbamate], the EC50 lay within 1000 to 10000 nM.

For the compound `O=C(c1ccc(N2CCOCC2)cc1)N1CCC[C@H]1c1ncc(-c2ccc(-c3ccc(-c4cnc([C@@H]5CCCN5C(=O)[C@@H](c5ccccc5)N5CCCCC5)[nH]4)cc3)cc2)[nH]1` [Example 107-10, 4-(4-(((2S)-2-(5-(4′-(2-((2S)-1-((2R)-2-phenyl-2-(1-piperidinyl)acetyl)-2-pyrrolidinyl)-1H-imidazol-5-yl)-4-biphenylyl)-1H-imidazol-2-yl)-1-pyrrolidinyl)carbonyl)phenyl) morpholine], the 50% effective concentration (EC50) fell in the range of 0.001 to 0.999 nM.

For the compound `COc1ccccc1OCC(=O)N1CCC[C@H]1c1ncc(-c2ccc(-c3ccc(-c4cnc([C@@H]5CCCN5C(=O)[C@@H](c5ccccc5)N(C)C)[nH]4)cc3)cc2)[nH]1` [Example 94-24, (1R)-2-((2S)-2-(5-(4′-(2-((2S)-1-((2-methoxyphenoxy)acetyl)-2-pyrrolidinyl)-1H-imidazol-5-yl)-4-biphenylyl)-1H-imidazol-2-yl)-1-pyrrolidinyl)-N,N-dimethyl-2-oxo-1-phenylethanamine], the EC50 fell in the range of 0.001 to 0.999 nM.

Regarding `COC(=O)N[C@@H](C)C(=O)N1CCC[C@H]1c1ncc(-c2ccc(-c3ccc(-c4cnc([C@@H]5CCCN5C(=O)[C@@H](Nc5ncccn5)C(C)C)[nH]4)cc3)cc2)[nH]1` [cj-11a, methyl ((1S)-1-methyl-2-oxo-2-((2S)-2-(5-(4′-(2-((2S)-1-(N-2-pyrimidinyl-L-valyl)-2-pyrrolidinyl)-1H-imidazol-5-yl)-4-biphenylyl)-1H-imidazol-2-yl)-1-pyrrolidinyl)ethyl)carbamate], the EC50 lay in the range of 0.001 to 0.999 nM.

As for `CCN(CC)[C@@H](C(=O)N1CC(F)(F)C[C@H]1c1ncc(-c2ccc(-c3ccc(-c4cnc([C@@H]5CC(F)(F)CN5C(=O)[C@@H](c5ccccc5)N(CC)CC)[nH]4)cc3)cc2)[nH]1)c1ccccc1` [OL-9, (1R,1′R)-2,2′-(4,4′-biphenyldiylbis(1H-imidazole-4,2-diyl((2S)-4,4-difluoro-2,1-pyrrolidinediyl)))bis(N,N-diethyl-2-oxo-1-phenylethanamine)], the 50% effective concentration (EC50) lay within 0.001 to 0.999 nM.

Regarding `COC(=O)N[C@@H](C(=O)N1CCC[C@H]1c1ncc(-c2ccc(-c3ccc(-c4cnc([C@@H]5CCCN5C(=O)[C@@H](c5ccccc5)N(C)C)[nH]4)cc3)cc2)[nH]1)c1ccccc1` [Example 42, methyl ((1R)-2-((2S)-2-(5-(4′-(2-((2S)-1-((2R)-2-(dimethylamino)-2-phenylacetyl)-2-pyrrolidinyl)-1H-imidazol-5-yl)-4-biphenylyl)-1H-imidazol-2-yl)-1-pyrrolidinyl)-2-oxo-1-phenylethyl)carbamate], the EC50 fell in the range of 0.001 to 0.999 nM.

For `CC(C)[C@@H](NC(=O)OC(C)(C)C)C(=O)N1[C@@H]2C[C@@H]2C[C@H]1c1nc(-c2ccc(-c3ccc(-c4c[nH]c([C@@H]5C[C@H]6C[C@H]6N5C(=O)[C@H](NC(=O)OC(C)(C)C)C(C)C)n4)cc3)cc2)c[nH]1` [Example M142, tert-butyl ((1R)-1-(((1R,3S,5R)-3-(4-(4′-(2-((1R,3S,5R)-2-((2R)-2-((tert-butoxycarbonyl)amino)-3-methylbutanoyl)-2-azabicyclo[3.1.0]hex-3-yl)-1H-imidazol-4-yl)-4-biphenylyl)-1H-imidazol-2-yl)-2-azabicyclo[3.1.0]hex-2-yl)carbonyl)-2-methylpropyl)carbamate], the EC50 was in the range of 1 to 99 nM.

In the case of `COC(=O)N[C@@H](C)C(=O)N1CCC[C@H]1c1ncc(-c2ccc(-c3ccc(-c4cnc([C@@H]5CCCN5C(=O)[C@H](NC(=O)OC)c5ccccc5)[nH]4)cc3)cc2F)[nH]1` [Example D38, methyl ((1R)-2-((2S)-2-(5-(3′-fluoro-4′-(2-((2S)-1-(N-(methoxycarbonyl)-L-alanyl)-2-pyrrolidinyl)-1H-imidazol-5-yl)-4-biphenylyl)-1H-imidazol-2-yl)-1-pyrrolidinyl)-2-oxo-1-phenylethyl)carbamate], the EC50 fell in the range of 0.001 to 0.999 nM.

The term EC50 denotes the concentration that produces a half-maximal response.
